# Test results from EP4647428A1, “COMPOUND CONTAINING 2-METHYL-2-(3-(PIPERIDIN-3-YL)PHENOXY)-2-METHYLPROPANAMIDE SKELETON” (Jiangsu Mingsheng Jutai Biotechnology Co. Ltd, priority 2023, dated 2024).
# Tested on: SW480
# Test: CCK8 cell inhibition test on SW480 cells
# Format: cell-based
# Conditions: CCK-8, SW480 cells, 24 hours incubation at 37°C, compound 20 µM to 0.15625 µM in DMEM (2% FBS)
# Description: Cells were digested, counted, and plated in a 96-well plate (flat-bottomed, transparent) with 10,000 cells/100 µl DMEM (10% FBS) per well . • 2. Observe the cell status on the next day and start adding drugs after the cells have fully adhered to the wall; • 3. Dilute the compound in DMEM (2% FBS) in a serial dilution format to concentrations of 20 µM, 10 µM, 5 µM, 2.5 µM, 1.25 µM, 0.625 µM, 0.3125 µM, 0.15625 µM, and 0 µM (with equal volume of DMSO). • 4. Add 100 µl of the above compounds at different concentrations to each well. Repeat for each concentration gradient in duplicate. Leave three blank wells (add only DMEM 2% FBS culture medium without cells) . • 5. Incubate at 37°C for 24 hours . • 6. Add 10 µl of CCK-8 Enhanced Solution to each well. Since the amount of CCK-8 added to each well is relatively small, there may be errors due to the reagent sticking to the well wall. It is recommended to gently tap the culture plate after adding the reagent to help mix it. • 7. Incubate in the incubator for 0.5-4 hours: The amount of formazan formed varies depending on the cell type. In most cases, incubation for 1 hour is sufficient. If color development is insufficient, continue incubation to confirm optimal conditions. • 8. Measure the absorbance at 450nm and 600nm (excluding interference from the reagent background color and the absorbance of the well plate itself); • 9. The final absorbance value is OD450nm-OD600nm, and the inhibition rate is calculated; Inhibition rate = [(Ac−As)/(Ac−Ab)] × 100% [formula] • As: absorbance of the experimental well (culture medium containing cells, CCK-8, and drug to be tested); • Ac: absorbance of control wells (culture medium containing cells, CCK-8, and no test drug); • Ab: absorbance of blank wells (culture medium without cells, test drugs, or CCK-8).
SW480 IC50(µM),Compound,IC50
Inactive,"CC(C)(Oc1cccc(C2CCCN(C(=O)NCCc3ccc(-c4cn[nH]c4)cc3)C2)c1)C(=O)NCC(=O)N1CCCC1CN (centres unmarked) [Compound 115-021, N-(4-(1H-pyrazol-4-yl)phenethyl)-3-(3-((1-((2-(2-(aminomethyl)pyrrolidin-1-yl)-2-oxoethyl)amino)-2-methyl-1-oxopropanoyl)oxy)phenyl)piperidine-1-carboxamide]",–
Inactive,"CC(C)(Oc1cccc(C2CCCN(S(=O)(=O)c3cccc(-c4cn[nH]c4)c3)C2)c1)C(=O)NS(=O)(=O)c1ccc(C(F)(F)F)cc1 (centres unmarked) [Compound 115-025, 2-(3-(1-((3-(1H-pyrazol-4-yl)phenyl)sulfonyl)piperidin-3-yl)phenoxy)-2-methyl-N-((4-(trifluoromethyl)phenyl)sulfonyl)propionamide]",–
Inactive,"CC(C)(Oc1cccc(C2CCCN(S(=O)(=O)c3ccc(-c4cn[nH]c4)cc3)C2)c1)C(=O)NS(=O)(=O)c1ccc(C(F)(F)F)cc1 (centres unmarked) [Compound 115-026, 2-(3-(1-((4-(1H-pyrazol-4-yl)phenyl)sulfonyl)piperidin-3-yl)phenoxy)-2-methyl-N-((4-(trifluoromethyl)phenyl)sulfonyl)propionamide]",–
–,"N-(2-((S)-2-(2-aminoethyl)pyrrolidin-1-yl)-2-oxoethyl)-2-(3-(1-((4'-isopropyl-[1,1'-biphenyl]-3-yl)sulf onylpiperidin-3-yl)phenoxy)-2-methylpropanamide) [Compound 115-014]",52.9 µM

Compound,SW480 IC50(µM),IC50
"CC(C)(Oc1cccc(C2CCCN(C(=O)NCc3ccc(-c4cn[nH]c4)cc3)C2)c1)C(=O)NCC(=O)N1CCCC1CN (centres unmarked) [Compound 115-020, N-(4-(1H-pyrazol-4-yl)benzyl)-3-(3-((1-((2-(2-(aminomethyl)pyrrolidin-1-yl)-2-oxoethyl)amino)-2-methyl-1-oxopropanoyl)oxy)phenyl)piperidine-1-carboxamide]",Inactive,–

# Same assay, conditions: Homo sapiens; CCK-8, SW480 cells, 24 hours incubation at 37°C, compound 20 µM to 0.15625 µM in DMEM (2% FBS)
row,IC50,Compound
1,23.1 µM,"CC(C)(Oc1cccc(C2CCCN(C(=O)c3ccc(-c4cn[nH]c4)cc3)C2)c1)C(=O)NCC(=O)N1CCCC1CN (centres unmarked) [Compound 115-027, 2-(3-(1-(4-(1H-pyrazol-4-yl)benzoyl)piperidin-3-yl)phenoxy)-N-(2-(2-(aminomethyl)pyrrolidin-1-yl)-2-oxoethyl)-2-methylpropanamide]"
2,15.7 µM,"CC(C)(Oc1cccc(C2CCCN(C(=O)Cc3ccc(-c4cn[nH]c4)cc3)C2)c1)C(=O)NCC(=O)N1CCCC1CN (centres unmarked) [Compound 115-028, 2-(3-(1-(2-(4-(1H-pyrazol-4-yl)phenyl)acetyl)piperidin-3-yl)phenoxy)-N-(2-(2-(aminomethyl)pyrrolidin-1-yl)-2-oxoethyl)-2-methylpropanamide]"
3,20.8 µM,"CC(C)(Oc1cccc(C2CCCN(C(=O)CCc3ccc(-c4cn[nH]c4)cc3)C2)c1)C(=O)NCC(=O)N1CCCC1CN (centres unmarked) [Compound 115-029, 2-(3-(1-(3-(4-(1H-pyrazol-4-yl)phenyl)propionyl)piperidin-3-yl)phenoxy)-N-(2-(2-(aminomethyl)pyrrolidin-1-yl)-2-oxoethyl)-2-methylpropionamide]"
4,3.12 to 6.25 µM,CC(C)c1ccc(-c2ccc(C(=O)N3CCCC(c4cccc(OC(C)(C)C(=O)NCC(=O)N5CCCC5CN)c4)C3)cc2)cc1 (centres unmarked) [Compound 115-030]
5,6.99 µM,"CC(C)c1ccc(-c2ccc(CC(=O)N3CCCC(c4cccc(OC(C)(C)C(=O)NCC(=O)N5CCCC5CN)c4)C3)cc2)cc1 (centres unmarked) [Compound 115-031, N-(2-(2-(Aminomethyl)pyrrolidin-1-yl)-2-oxoethyl)-2-(3-(1-(2-(4'-isopropyl-[1,1'-biphenyl]-4-yl)acetyl)piperidin-3-yl)phenoxy)-2-methylpropanamide]"
6,≤ 2.65 µM,"CC(C)c1ccc(-c2cccc(S(=O)(=O)N3CCC=C(c4cccc(OC(C)(C)C(=O)NCC(=O)N5CCCC5CN)c4)C3)c2)cc1 (centres unmarked) [Compound 115-049, N-(2-(2-(Aminomethyl)pyrrolidin-1-yl)-2-oxoethyl)-2-(3-(1-((4'-isopropyl-[1,1'-biphenyl]-3-yl)sulfonyl)-1,2,5,6-tetrahydropyridin-3-yl)phenoxy)-2-methylpropanamide]"
7,≤ 2.74 µM,"CC(C)c1ccc(-c2cccc(S(=O)(=O)N3CCCC(c4cccc(OC(C)(C)C(=O)NCC(=O)N5CCCC5CN)c4)C3)n2)cc1 (centres unmarked) [Compound 115-052, N-(2-(2-(aminomethyl)pyrrolidin-1-yl)-2-oxoethyl)-2-(3-(1-((6-(4-isopropylphenyl)pyridin-2-yl)sulfonyl)piperidin-3-yl)phenoxy)-2-methylpropanamide]"
8,4.06 µM,"CC(C)c1ccc(-c2cncc(S(=O)(=O)N3CCCC(c4cccc(OC(C)(C)C(=O)NCC(=O)N5CCCC5CN)c4)C3)c2)cc1 (centres unmarked) [Compound 115-055, N-(2-(2-(Aminomethyl)pyrrolidin-1-yl)-2-oxoethyl)-2-(3-(1-((5-(4-isopropylphenyl)pyridin-3-yl)sulfonyl)piperidin-3-yl)phenoxy)-2-methylpropanamide]"

# Continued, compound first:
row,Compound,IC50
1,"CC(C)c1ccc(-c2cccc(S(=O)(=O)N3CCCC(c4cccc(OC(C)(C)C(=O)NS(=O)(=O)c5ccc(C(F)(F)F)cc5)c4)C3)c2)cc1 (centres unmarked) [Compound 115, reference compound]",2.81 µM
2,CC(C)c1ccc(-c2cccc(S(=O)(=O)N3CCCC(c4cccc(OC(C)(C)C(=O)NCC(=O)N5CCC[C@@H]5CN)c4)C3)c2)cc1 (some centres unmarked) [Compound 115-011],3.12 to 6.25 µM
3,CC(C)c1ccc(-c2cccc(S(=O)(=O)N3CCCC(c4cccc(OC(C)(C)C(=O)NCC(=O)N5CC[C@H](CN)C5)c4)C3)c2)cc1 (some centres unmarked) [Compound 115-013],3.12 µM
4,"CC(C)c1ccc(-c2cccc(S(=O)(=O)N3CCCC(c4cccc(OC(C)(C)C(=O)NS(=O)(=O)N5CCC[C@@H]5CN)c4)C3)c2)cc1 (stereo partly drawn) [Compound 115-017, N-(2-(R)-(Aminomethyl)pyrrolidin-1-yl)sulfonyl)-2-(3-(1-((4'-isopropyl-[1,1'-biphenyl]-3-yl)sulfonylpiperidin-3-yl)phenoxy)-2-methylpropionamide]",10.6 µM
5,"CC(C)n1cc(-c2cccc(S(=O)(=O)N3CCCC(c4cccc(OC(C)(C)C(=O)NCC(=O)N5CCCC5CN)c4)C3)c2)cn1 (centres unmarked) [Compound 115-022, N-(2-(2-(Aminomethyl)pyrrolidin-1-yl)-2-oxoethyl)-2-(3-(1-((3-(1-isopropyl-1H-pyrazol-4-yl)phenyl)sulfonyl)piperidin-3-yl)phenoxy)-2-methylpropanamide]",9.71 µM
6,"CC(C)(Oc1cccc(C2CCCN(S(=O)(=O)c3cccc(-c4cn[nH]c4)c3)C2)c1)C(=O)NCC(=O)N1CCCC1CN (centres unmarked) [Compound 115-023, 2-(3-(1-((3-(1H-pyrazol-4-yl)phenyl)sulfonyl)piperidin-3-yl)phenoxy)-N-(2-(2-(aminomethyl)pyrrolidin-1-yl)-2-oxoethyl)-2-methylpropanamide]",30.5 µM
7,"CC(C)n1cc(-c2cccc(S(=O)(=O)N3CCCC(c4cccc(OC(C)(C)C(=O)NS(=O)(=O)c5ccc(C(F)(F)F)cc5)c4)C3)c2)cn1 (centres unmarked) [Compound 115-024, 2-(3-(1-((3-(1-isopropyl-1H-pyrazol-4-yl)phenyl)sulfonyl)piperidin-3-yl)phenoxy)-2-methyl-N-((4-(trifluoromethyl)phenyl)sulfonyl)propionamide]",11.1 µM
